Values quoted from earlier work as cited in patent US11478445B2, “Method for treating acute myeloid leukemia” (Bionomics Limited, priority 2017, dated 2022).

How the values were obtained:
KG1 cells [1] = conditions: Petit et al. 2008, Madlambayan et al. 2010; cited from earlier work
KG1 cells [2] = conditions: Petit et al. 2008; cited from earlier work

Compound	total ROS levels (KG1 cells [1])	cell cycle (KG1 cells [2])
COc1ccc(/C=C\c2cc(OC)c(OC)c(OC)c2)c(O)c1O [OXi4500, combretastatin-A1]	increase in total ROS levels	
COc1ccc(/C=C\c2cc(OC)c(OC)c(OC)c2)cc1OP(=O)(O)O [combretastatin-A4-P]	increase in total ROS levels	induces G2/M cell cycle arrest
